{"source": "patent US20140044766A1", "about": "“METHOD FOR THE ANTIMICROBIAL PROTECTION OF AN OBJECT USING AN ANTIMICROBIAL PRESSURE-SENSITIVE ADHESIVE PLASTICS FILM” (priority 2007, published 2014)", "key": {"Pseudomonas aeruginosa": {"system": "Pseudomonas aeruginosa", "details": "cited from earlier work"}, "[1]": {"system": "Staphylococcus aureus bacteria", "test": "inhibition zone method, similar to Japanese standard JIS L 1902: 2002", "format": "cell-based", "procedure": "The antimicrobial activity of the films was determined using the inhibition zone method, similar to that described in Japanese standard JIS L 1902: 2002. The film was cut into small disks with a diameter of 1 cm. They were immersed in a dish containing a nutrient medium and a known quantity of yellow colored Staphylococcus aureus bacteria. […] A protective halo was formed around the treated samples that was termed the inhibition zone, as shown in FIGS. 4-1 to 4-15 representing the results for the antimicrobial films of Examples 1 to 15. Measuring this halo allowed the intensity of the antimicrobial activity of the film to be determined."}, "[2]": {"system": "penicillin-resistant Stapylococcus aureus", "details": "cited from earlier work"}}, "note": "Entries after “also recorded” stand apart in the source; their conditions may differ."}
{"smiles": "Oc1cc(Cl)ccc1Oc1ccc(Cl)cc1Cl", "note": "[triclosan, 5-chloro-2-(2,4-dichlorophenoxy)phenol]", "values": [{"measurement": "effect on Pseudomonas aeruginosa", "setting": "Pseudomonas aeruginosa", "result": "not affected"}, {"measurement": "antimicrobial activity in varnish-coated films (comparison in words)", "setting": "[1]; agent incorporated in acrylic varnish on PVC film", "result": "more effective than Parmetol CF10 and Irgaguard H6000; also recorded: retained a high activity compared with the others"}, {"measurement": "antimicrobial activity in a film incorporating the agent in its material (comparison in words)", "setting": "[1]; cast PVC film, Examples 8 to 15", "result": "highest antimicrobial activity"}, {"measurement": "effect on penicillin-resistant Stapylococcus aureus", "setting": "[2]", "result": "simply inhibited"}]}
